Experiment [1] has as its system Human umbilical vein endothelial cells (HUVECs). Kind of experiment: Tube formation assay of HUVEC in Matrigel. The note with it: 50 μM ticlopidine alone; total tube area per well relative to control (100). It is filed as cell-based. The procedure:
The tube formation assay was performed as follows: 48-well plates were coated with 0.2 ml of Matrigel (BD Bioscience, Bedford, Mass., USA) and incubated at 37° C. for 1 hr. 4˜6×10^4 HUVECs resuspended in 0.4 ml of M199 medium were added to each well. Ticlopidine (Sigma Chemical Co., USA) and Ginkgo biloba extract (Hwa Il Pharmaceutical Co., LTD, Korea), a standardized extract that contained 24% flavonoid glycosides and 6% terpenoids, were added to the Matrigel. Final concentration of ticlopidine and Ginkgo biloba extract were 25 μM and 5 μg/ml, respectively. As a control, the procedure was repeated without added ticlopidine and Ginkgo biloba extract. Comparative runs were also conducted by the same procedure using ticlopidine alone (comparative run 1) or only with Ginkgo biloba extract (comparative run 2). The extent of tube formation was determined by measuring the total tube area per well relative to that of the control using image analysis program Image-Pro Pluso (Media Cybernetics, USA).

Experiment [2] relates to formation of blood vessels in Matrigel. Kind of experiment: Matrigel plug assay (hemoglobin in bFGF/heparin Matrigel implanted in mice). The experiment is classed as in vivo, C57BL/6 female mice. The note with it: 0.65 mg/mouse orally twice per day for four days; control = 100. Here is the method: 0.4 ml portion of Matrigel each mixed with 50 ng/ml of basic fibroblast growth factor (bFGF) and 50 units of heparin were implanted by subcutaneous injection in 5-week-old C57BL/6 female mice, and a mixture of 0.65 mg ticlopidine and 0.4 mg Ginkgo biloba extract was orally administrated to each mouse twice per day for four days. Then each mouse was sacrificed and the Matrigel was excised. For comparison, the procedure was repeated using ticlopidine or Ginkgo biloba extract alone. The formation of blood vessels in Matrigel was tested by measuring the amount of hemoglobin (Hb) in the Matrigel using the Drabkin reagent kit (Sigma Chemical Co., St. Louise, Mich., USA) which contained standards of known amounts of Hb.

With `Clc1ccccc1CN1CCc2sccc2C1` [Ticlopidine, 5-[(2-chlorophenyl)methyl]-4,5,6,7-tetrahydrothieno[3,2-C]pyridine], the “Total Tube Area %” value in experiment [1] amounted to 91%. In experiment [2], the “Hemoglobin (%)” value was determined as 95%.

Source of the values: patent US20030165586A1, “Anti-angiogenic composition comprising ticlopidine and gingko biloba extract” (priority 2003, published 2003).
